Test system: combinatorial α-synucleinopathy PD mouse model
Test: Sporadic PD mouse model, combinatorial PFF and rAAV-αSyn nigral injection, PCiv diet
Type: in vivo
Experimental: Figure 4 PCiv administration suppresses PFF-induced dopaminergic neurodegeneration, α-synuclein aggregation, and motor dysfunction in vivo. (A) Bradykinesia (slowness of movement) assessed by pole test for control and combinatorial PFF/AAV-αSyn-injected mice with or without PCiv treatment (50 mg PCiv/kg diet for 30 days, n = 5 per group). Control mice are those nigrally injected with PBS and AAV-GFP. (B) Motor coordination of the mice in the experimental group was assessed by an accelerated rotarod test (n = 5 per group). (C) Representative tyrosine hydroxylase (TH) immunohistochemical staining of the ventral midbrains of control and combinatorial α-synucleinopathy-PD mice fed with a PCiv diet (50 mg/kg diet for 30 days) or normal chow diet. (D) Stereological assessment of TH-positive dopaminergic neurons in the substantia nigra pars compacta of the injection side of the indicated mice groups (n = 5 mice per group). (E) Representative immunofluorescence images of pS129-αSyn and TH in the substantia nigra coronal sections of the indicated experimental mice groups. (F) Quantification of relative pS129-αSyn fluorescence intensities in the TH-positive dopamine neurons of the substantia nigra sections from the indicated experimental groups (n = 28 cells from 3 mice per group). The quantified data are expressed as means ± SEMs. Statistical significance was determined by an ANOVA test with Tukey’s post hoc analysis, ** p < 0.01, *** p < 0.001, and **** p < 0.0001. ns = nonsignificant.
All animal experiments were approved by the Ethical Committee of Sungkyunkwan University Animal Care and Use Committee of Gachon University (Approval number: […]2019-06-15-1; GIACUC-R2021006) and were conducted in accordance with all applicable international guidelines. Male C57BL/6N mice (2 months old) were obtained from Orient Bio (Suwon, Korea). The animals were housed in air-controlled rooms with a 12-h dark/light cycle. Mice and rats were provided ad libitum access to diet and water. All efforts were made to minimize animal suffering and the number of animals used in the experiments. A synthetic PCiv diet was supplied to the mice. The PCiv diet administration (50 mg/kg/day for PFF PD mouse models) began on day 0 and was continued for 30 days. Intranigral injection of the rAAV-αSyn and PFF mixture was performed on day 0. Mice brains were prepared for analysis, as described below. To test the therapeutic effects of PCiv, we prepared a diet containing PCiv. To facilitate each mouse consuming 2 mg of PCiv per day, we generated a mixture of 400 mg of PCiv per kg of rodent diet and then supplied it to the mice.
The α-synucleinopathy PD model was created by co-injecting PFF (10 µg; ventral tegmental area: AP, −3.4 mm; ML, −0.5 mm; DV, −4.3 mm) and rAAV-αSyn (AAV serotype 1, 1 µL of titer 5 × 1011 GC/mL; substantia nigra pars compacta: AP, −3.4 mm; ML, −1.3 mm; DV, −4.3 mm) into a 2-month-old C57BL/6N mouse. rAAV-GFP was used as the control. PFF was prepared from pure recombinant human α-synuclein (Proteos, Inc., Kalamazoo, MI, USA) according to a previous report. Before use, sonicated PFFs were evaluated using Western blotting and a functional assay in cortical neuron cultures (pS129-αSyn induction and neurotoxicity). After co-injecting PFF and rAAV-αSyn, PD models were fed a PCiv or normal diet for a month. For stereological analysis, the animals were perfused 1 month after intranigral injection and fixed intracardially with ice-cold PBS. The tissues were post-fixed with 4% paraformaldehyde overnight. The fixed mice brains were cryoprotected in 30% sucrose (wt/vol) in PBS and subsequently processed for immunohistochemistry.
Coronal sections (thickness, 35 µm) of the fixed and cryoprotected brains were cut, including the substantia nigra. […]

[1] = PD mice, PCiv diet 50 mg/kg diet for 30 days

C/C=C(\C)C(=O)O[C@H]1[C@H](OC(C)=O)c2c(ccc3ccc(=O)oc23)OC1(C)C (relative stereo) [PCiv, trans-4′-acetyl-3′-tigloylkhellactone]
total α-synuclein expression (PBS+AAV-GFP and PFF+AAV-αSyn injection groups, PCiv diet): no alteration
development of motor impairment (pole and rotarod tests) (PD mice, PCiv diet 50 mg per kg diet, four weeks): almost completely prevented
dopaminergic neurons (TH-positive, substantia nigra) [1]: marked protection
α-synuclein aggregation pathology (pS129-αSyn in TH-positive dopamine neurons) [1]: largely blocked
dopamine neuron viability in control mouse group (control mice (PBS + AAV-GFP), PCiv diet): no effect
overt toxicity (in cells and in vivo mouse models): did not observe any overt toxicity

Reference: PMC9369442, “Synthetic Peucedanocoumarin IV Prevents α-Synuclein Neurotoxicity in an Animal Model of Parkinson’s Disease” (International Journal of Molecular Sciences, 2022)
